The NIST ThermoML archive (doi:10.1016/j.tca.2012.11.008)

Experiment: mn = molality of the nth substance listed, in mol/kg
Conditions: 101 kPa, Liquid; for speed of sound: Sing-around technique in a fixed-path interferometer; for mass density: Vibrating tube method

O [water] + NC(CO)(CO)CO.O=C(c1ccccc1)c1ccc2n1CCC2C(=O)O
Conditions	speed of sound [m/s]
313.15 K, m2 = 0	1529.1

NC(CO)(CO)CO.O=C(c1ccccc1)c1ccc2n1CCC2C(=O)O (stereo unspecified) [ketorolac tromethamine] + O
Conditions	mass density, 293.15 K [kg/m3]	mass density, 298.15 K [kg/m3]	mass density, 303.15 K [kg/m3]	mass density, 308.15 K [kg/m3]	mass density, 313.15 K [kg/m3]	speed of sound, 293.15 K [m/s]	speed of sound, 298.15 K [m/s]	speed of sound, 303.15 K [m/s]	speed of sound, 308.15 K [m/s]	speed of sound, 313.15 K [m/s]
m1 = 0.01	999.38	998.2	996.79	995.17	993.34	1485.6	1499.7	1512	1522.5	1531.5
m1 = 0.02	1000.35	999.17	997.75	996.11	994.28	1486.8	1500.7	1512.9	1523.3	1532.2
m1 = 0.03	1001.41	1000.21	998.78	997.13	995.29	1488.7	1502.5	1514.6	1524.9	1533.7
m1 = 0.04	1002.57	1001.23	999.83	998.13	996.22	1491	1504.7	1516.7	1527	1535.7
m1 = 0.05	1003.3	1002.07	1000.62	998.96	997.1	1492.1	1505.7	1517.6	1527.7	1536.3
m1 = 0.075	1006.13	1004.88	1003.4	1001.71	999.82	1497.4	1510.7	1522.3	1532.2	1540.5
m1 = 0.1	1008.75	1007.46	1005.95	1004.24	1002.31	1501.5	1514.5	1525.8	1535.5	1543.6
m1 = 0.125	1011.43	1010.1	1008.54	1006.74	1004.79	1506	1518.8	1530	1539.4	1547.3
m1 = 0.15	1014.02	1012.67	1011.11	1009.34	1007.39	1509.9	1522.5	1533.4	1542.7	1550.4
m1 = 0.175	1016.56	1015.19	1013.63	1011.84	1009.86	1514.6	1527.1	1538	1547.2	1554.6
m1 = 0.2	1019.22	1017.8	1016.15	1014.32	1012.32	1518.9	1531.4	1542.3	1550.8	1558.1
m1 = 0.25	1024.63	1023.16	1021.49	1019.63	1017.59	1525.6	1537.4	1547.6	1556	1563
